Data taken from PubChem BioAssay (NCI).
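Briefly, cells in 96-well plates were exposed to five compound concentrations for 48 h, and endpoints were estimated by linear interpolation. GI50 is the concentration that inhibits growth by half. TGI marks complete inhibition of growth.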

Assays:
Assay in all cases: DTP human tumour cell line panel, 48 h
HCC-2998 colon = system: HCC-2998 colon
UO-31 renal = system: UO-31 renal
SR leukemia = system: SR leukemia
T-47D breast = system: T-47D breast
DU-145 prostate = system: DU-145 prostate
CAKI-1 renal = system: CAKI-1 renal
OVCAR-3 ovarian = system: OVCAR-3 ovarian
NCI-H460 lung = system: NCI-H460 lung
M14 melanoma = system: M14 melanoma
NCI/ADR-RES ovarian = system: NCI/ADR-RES ovarian
IGROV1 ovarian = system: IGROV1 ovarian
TK-10 renal = system: TK-10 renal
U251 CNS = system: U251 CNS
HOP-62 NSCLC = system: HOP-62 NSCLC
NCI-H226 lung = system: NCI-H226 lung
SK-MEL-2 melanoma = system: SK-MEL-2 melanoma
UACC-257 melanoma = system: UACC-257 melanoma
UACC-62 melanoma = system: UACC-62 melanoma
ACHN renal = system: ACHN renal
A498 renal = system: A498 renal
SNB-19 CNS = system: SNB-19 CNS
CCRF-CEM leukemia = system: CCRF-CEM leukemia
PC-3 prostate = system: PC-3 prostate
BT-549 breast = system: BT-549 breast
HCT-15 colon = system: HCT-15 colon
OVCAR-4 ovarian = system: OVCAR-4 ovarian
HCT-116 colon = system: HCT-116 colon
SF-295 CNS = system: SF-295 CNS
MDA-MB-435 = system: MDA-MB-435
A549 NSCLC = system: A549 NSCLC
MOLT-4 leukemia = system: MOLT-4 leukemia
SW-620 colon = system: SW-620 colon
OVCAR-8 ovarian = system: OVCAR-8 ovarian
LOX IMVI melanoma = system: LOX IMVI melanoma
NCI-H522 lung = system: NCI-H522 lung
RPMI-8226 leukemia = system: RPMI-8226 leukemia
SN12C renal = system: SN12C renal
HS 578T breast = system: HS 578T breast
SF-268 CNS = system: SF-268 CNS
SK-MEL-5 melanoma = system: SK-MEL-5 melanoma
OVCAR-5 ovarian = system: OVCAR-5 ovarian
SF-539 CNS = system: SF-539 CNS
NCI-H23 lung = system: NCI-H23 lung
HT29 colon = system: HT29 colon
SK-OV-3 ovarian = system: SK-OV-3 ovarian
MDA-MB-231 breast = system: MDA-MB-231 breast
KM12 colon = system: KM12 colon
MALME-3M melanoma = system: MALME-3M melanoma
SK-MEL-28 melanoma = system: SK-MEL-28 melanoma
EKVX NSCLC = system: EKVX NSCLC
SNB-75 CNS = system: SNB-75 CNS
HL-60(TB) leukemia = system: HL-60(TB) leukemia
K-562 leukemia = system: K-562 leukemia
RXF 393 renal = system: RXF 393 renal
MCF7 breast = system: MCF7 breast
786-0 renal = system: 786-0 renal
COLO 205 colon = system: COLO 205 colon

## COc1ccc2c(c1)CC[C@@H]1[C@@H]2CC[C@]2(C)C(c3ccsc3)=C(/C=C/C(=O)c3ccccc3)C[C@@H]12
HCC-2998 colon
  GI50: 67.4 µM
  TGI: > 100 µM
UO-31 renal
  GI50: > 100 µM
  TGI: > 100 µM
SR leukemia
  GI50: 19.9 µM
  TGI: > 100 µM
T-47D breast
  GI50: > 100 µM
  TGI: > 100 µM
DU-145 prostate
  GI50: > 100 µM
  TGI: > 100 µM
CAKI-1 renal
  GI50: > 100 µM
  TGI: > 100 µM
OVCAR-3 ovarian
  GI50: > 100 µM
  TGI: > 100 µM
NCI-H460 lung
  GI50: > 100 µM
  TGI: > 100 µM
M14 melanoma
  GI50: > 100 µM
  TGI: > 100 µM
NCI/ADR-RES ovarian
  GI50: > 100 µM
  TGI: > 100 µM
IGROV1 ovarian
  GI50: > 100 µM
  TGI: > 100 µM
TK-10 renal
  GI50: > 100 µM
  TGI: > 100 µM
U251 CNS
  GI50: > 100 µM
  TGI: > 100 µM
HOP-62 NSCLC
  GI50: > 100 µM
  TGI: > 100 µM
NCI-H226 lung
  GI50: > 100 µM
  TGI: > 100 µM
SK-MEL-2 melanoma
  GI50: > 100 µM
  TGI: > 100 µM
UACC-257 melanoma
  GI50: > 100 µM
  TGI: > 100 µM
UACC-62 melanoma
  GI50: > 100 µM
  TGI: > 100 µM
ACHN renal
  GI50: > 100 µM
  TGI: > 100 µM
A498 renal
  GI50: > 100 µM
  TGI: > 100 µM
SNB-19 CNS
  GI50: > 100 µM
  TGI: > 100 µM
CCRF-CEM leukemia
  GI50: > 100 µM
  TGI: > 100 µM
PC-3 prostate
  GI50: 39 µM
  TGI: > 100 µM
BT-549 breast
  GI50: > 100 µM
  TGI: > 100 µM
HCT-15 colon
  GI50: > 100 µM
  TGI: > 100 µM
OVCAR-4 ovarian
  GI50: > 100 µM
  TGI: > 100 µM
HCT-116 colon
  GI50: > 100 µM
  TGI: > 100 µM
SF-295 CNS
  GI50: > 100 µM
  TGI: > 100 µM
MDA-MB-435
  GI50: > 100 µM
  TGI: > 100 µM
A549 NSCLC
  GI50: > 100 µM
  TGI: > 100 µM
MOLT-4 leukemia
  GI50: 2.67 µM
  TGI: > 100 µM
SW-620 colon
  GI50: > 100 µM
  TGI: > 100 µM
OVCAR-8 ovarian
  GI50: > 100 µM
  TGI: > 100 µM
LOX IMVI melanoma
  GI50: > 100 µM
  TGI: > 100 µM
NCI-H522 lung
  GI50: > 100 µM
  TGI: > 100 µM
RPMI-8226 leukemia
  GI50: 50.3 µM
  TGI: > 100 µM
SN12C renal
  GI50: > 100 µM
  TGI: > 100 µM
HS 578T breast
  GI50: > 100 µM
  TGI: > 100 µM
SF-268 CNS
  GI50: > 100 µM
  TGI: > 100 µM
SK-MEL-5 melanoma
  GI50: > 100 µM
  TGI: > 100 µM
OVCAR-5 ovarian
  GI50: > 100 µM
  TGI: > 100 µM
SF-539 CNS
  GI50: > 100 µM
  TGI: > 100 µM
NCI-H23 lung
  GI50: > 100 µM
  TGI: > 100 µM
HT29 colon
  GI50: > 100 µM
  TGI: > 100 µM
SK-OV-3 ovarian
  GI50: > 100 µM
  TGI: > 100 µM
MDA-MB-231 breast
  GI50: > 100 µM
  TGI: > 100 µM
KM12 colon
  GI50: > 100 µM
  TGI: > 100 µM
MALME-3M melanoma
  GI50: > 100 µM
  TGI: > 100 µM
SK-MEL-28 melanoma
  GI50: > 100 µM
  TGI: > 100 µM
EKVX NSCLC
  GI50: > 100 µM
  TGI: > 100 µM
SNB-75 CNS
  GI50: > 100 µM
  TGI: > 100 µM
HL-60(TB) leukemia
  GI50: 13.4 µM
  TGI: > 100 µM
K-562 leukemia
  GI50: > 100 µM
  TGI: > 100 µM
RXF 393 renal
  GI50: > 100 µM
  TGI: > 100 µM
MCF7 breast
  GI50: > 100 µM
  TGI: > 100 µM
786-0 renal
  GI50: > 100 µM
  TGI: > 100 µM
COLO 205 colon
  GI50: > 100 µM
  TGI: > 100 µM
